Laboratory results reported in article PMC7094737 (Journal of Molecular Biology, 2008).
Changes are numbered by the printed parent chain.

Columns and labels:
[1] = molecular target: T1, MDO1 (Homo sapiens, UniProt Q9BQ69); assay: ADPR-1″P hydrolysis; assay type: biochemical; conditions: by MDO1; Fig. 2, TLC
T1 sequence (Q9BQ69 83-325): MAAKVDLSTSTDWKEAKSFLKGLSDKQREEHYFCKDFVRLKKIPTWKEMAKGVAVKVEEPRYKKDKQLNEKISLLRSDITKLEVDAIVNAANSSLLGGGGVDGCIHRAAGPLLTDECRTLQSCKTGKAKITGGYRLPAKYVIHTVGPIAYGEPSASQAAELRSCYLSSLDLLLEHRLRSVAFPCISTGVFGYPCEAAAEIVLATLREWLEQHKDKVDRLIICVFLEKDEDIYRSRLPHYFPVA

[2] = molecular target: T2, MDO2 (Homo sapiens, UniProt A1Z1Q3); assay: ADPR-1″P hydrolysis; assay type: biochemical; conditions: by MDO2; Fig. 2, TLC
T2 sequence (A1Z1Q3 1-243): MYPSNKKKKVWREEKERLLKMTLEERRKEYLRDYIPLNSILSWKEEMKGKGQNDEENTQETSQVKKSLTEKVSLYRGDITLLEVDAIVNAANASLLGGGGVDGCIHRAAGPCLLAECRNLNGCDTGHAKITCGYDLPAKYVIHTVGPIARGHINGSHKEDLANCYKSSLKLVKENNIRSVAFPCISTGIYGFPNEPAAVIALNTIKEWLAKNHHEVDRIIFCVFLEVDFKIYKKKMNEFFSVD

[3] = molecular target: T3, GDAP2 (Homo sapiens, UniProt Q9NXN4); assay: ADPR-1″P hydrolysis; assay type: biochemical; conditions: by GDAP2; Fig. 2, TLC
T3 sequence (Q9NXN4 1-231 isoform Q9NXN4-2): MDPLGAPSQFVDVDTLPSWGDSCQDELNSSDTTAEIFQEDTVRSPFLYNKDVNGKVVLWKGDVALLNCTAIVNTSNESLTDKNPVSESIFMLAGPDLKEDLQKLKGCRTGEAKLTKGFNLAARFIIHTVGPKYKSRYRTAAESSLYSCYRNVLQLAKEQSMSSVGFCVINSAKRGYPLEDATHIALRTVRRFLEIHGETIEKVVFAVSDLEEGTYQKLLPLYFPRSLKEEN

[4] = molecular target: T4, SFV macro (nsP3) (Semliki forest virus, UniProt P08411); assay: ADPR-1″P hydrolysis; assay type: biochemical; conditions: by SFV nsP3 (167-aa and 328-aa similar); Fig. 2, TLC
T4 sequence (P08411 1337-1503 limits assumed): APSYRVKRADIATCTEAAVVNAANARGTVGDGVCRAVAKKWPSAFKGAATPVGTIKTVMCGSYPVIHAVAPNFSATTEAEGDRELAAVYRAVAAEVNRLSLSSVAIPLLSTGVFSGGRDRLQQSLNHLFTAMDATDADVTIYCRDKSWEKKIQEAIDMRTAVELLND

[5] = tested on: macro domains; assay: Filter binding with radioactive NAD+ alone
[6] = molecular target: T1, MDO1; assay type: binding; conditions: MDO1, 500 mM NaCl, data not shown
[7] = molecular target: T1, MDO1; assay: Competition for poly; assay type: binding; conditions: data not shown
[8] = molecular target: T5, SFV macro (Semliki forest virus, UniProt P08411); assay: Competition for poly; assay type: binding; conditions: data not shown
T5 sequence (P08411 1337-1495 limits assumed): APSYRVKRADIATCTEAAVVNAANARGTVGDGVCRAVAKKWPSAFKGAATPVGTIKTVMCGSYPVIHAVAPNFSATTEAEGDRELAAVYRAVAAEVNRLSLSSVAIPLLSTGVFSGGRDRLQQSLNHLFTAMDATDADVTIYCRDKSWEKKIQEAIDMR

[9] = molecular target: T6, HEV macro (Hepatitis E virus genotype 1, UniProt P29324); assay: Competition for poly; assay type: binding; conditions: data not shown
T6 sequence (P29324 775-960): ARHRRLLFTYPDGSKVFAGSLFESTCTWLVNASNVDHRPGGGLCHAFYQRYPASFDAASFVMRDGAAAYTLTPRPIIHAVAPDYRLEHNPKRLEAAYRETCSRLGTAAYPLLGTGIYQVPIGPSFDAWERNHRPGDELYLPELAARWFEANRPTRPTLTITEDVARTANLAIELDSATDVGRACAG

[10] = molecular target: T2, MDO2; assay: [32P]poly; assay type: binding; conditions: to MDO2; Fig. 3c
[11] = molecular target: T3, GDAP2; assay: [32P]poly; assay type: binding; conditions: to GDAP2; Fig. 3c
[12] = molecular target: T1, MDO1; assay type: binding; conditions: to MDO1; Fig. 3b
[13] = molecular target: T2, MDO2; assay type: binding; conditions: to MDO2; Fig. 3b
[14] = molecular target: T3, GDAP2; assay type: binding; conditions: to GDAP2
[15] = molecular target: T7, Poa1p (Saccharomyces cerevisiae, UniProt P38218, S2A); assay type: binding; conditions: to Poa1p; Fig. 3b
T7 sequence (P38218 1-177 S2A): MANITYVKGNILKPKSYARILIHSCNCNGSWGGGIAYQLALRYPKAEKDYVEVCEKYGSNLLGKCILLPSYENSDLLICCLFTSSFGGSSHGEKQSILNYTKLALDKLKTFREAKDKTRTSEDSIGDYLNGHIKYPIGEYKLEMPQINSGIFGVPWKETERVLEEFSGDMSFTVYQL

[16] = molecular target: T4, SFV macro (nsP3); assay type: binding; conditions: to SFV macro; Fig. 3b
[17] = molecular target: T6, HEV macro; assay type: binding; conditions: to HEV macro; Fig. 3b
[18] = molecular target: T8, MDO1 G182Y + G270Y (Homo sapiens, UniProt Q9BQ69, G182Y/G270Y); assay type: binding; conditions: filter washed with 1 M NaCl, not shown
T8 sequence (Q9BQ69 83-325 G182Y/G270Y): T1 sequence (Q9BQ69 83-325) with G100Y, G188Y

[19] = tested on: macro proteins; assay type: biochemical
[20] = monomeric ADP-ribose 1500-fold excess
[21] = molar excess of poly(A) ∼ 400-fold

Question: Which results are given for Nc1ncnc2c1ncn2[C@@H]1O[C@H](COP(=O)(O)OP(=O)(O)OC[C@H]2O[C@H](OP(=O)(O)O)[C@H](O)[C@@H]2O)[C@@H](O)[C@H]1O [ADPR-1″P, ADP-ribose-1″ phosphate]?
Answer: ADPR-1″P hydrolysis (in words) [1]: equally efficiently as yeast Poa1p; ADPR-1″P hydrolysis (in words) [2]: equally efficiently as yeast Poa1p; ADPR-1″P hydrolysis (in words) [3]: inactive; ADPR-1″P hydrolysis (in words) [4]: only a minor activity

Question: For NC(=O)c1ccc[n+]([C@@H]2O[C@H](COP(=O)([O-])OP(=O)(O)OC[C@H]3O[C@@H](n4cnc5c(N)ncnc54)[C@H](O)[C@@H]3O)[C@@H](O)[C@H]2O)c1 [NAD ^+], which “radioactive signal on filter-bound macro domains” value [5] is on record?
Answer: Its value is “no radioactive signal”.

Question: How did the “dissociation constant in high-salt buffer versus standard conditions” value [6] turn out when ADP-ribose was run?
Answer: The value was “approximately twofold”.

Question: What about the “competition for the binding of poly(ADP-ribose)” value (“competition for the binding” below) [7, 20] of the same compound?
Answer: The value was “no competition”.

Question: What about the “competition for the binding” value [8, 20] of the same compound?
Answer: Its value is “no competition”.

Question: And the “competition for the binding” value [9, 20]?
Answer: The value was “no competition”.

Question: How did the “poly(A) binding (in words)” value [10] turn out when poly(A) was run?
Answer: Its value is “did not bind poly(A)”.

Question: What about the “poly(A) binding (in words)” value [11] of the same compound?
Answer: The value was “bound poly(A)”.

Question: What about the “competition for the binding” value [7, 21] of the same compound?
Answer: The value was “no competition”.

Question: What about the “competition for the binding” value [8, 21] of the same compound?
Answer: Its value is “no competition”.

Question: What about the “competition for the binding” value [9, 21] of the same compound?
Answer: The value was “no competition”.

Question: poly(ADP-ribose) was tested. Which “poly(ADP-ribose) binding (in words)” value [12] did it give?
Answer: Its value is “bound poly(ADP-ribose)”.

Question: And the “poly(ADP-ribose) binding (in words)” value [13]?
Answer: The value was “did not show effective binding”.

Question: And the “poly(ADP-ribose) binding (in words)” value [14]?
Answer: Its value is “inefficient”.

Question: What about the “poly(ADP-ribose) binding (in words)” value [15] of the same compound?
Answer: The value was “did not show effective binding”.

Question: What about the “poly(ADP-ribose) binding (in words)” value [16] of the same compound?
Answer: Its value is “bound poly(ADP-ribose) effectively”.

Question: And the “poly(ADP-ribose) binding (in words)” value [17]?
Answer: The value was “bound poly(ADP-ribose) effectively”.

Question: And the “poly(ADP-ribose) binding after stringent wash” value [18]?
Answer: The value was “did not have an effect on poly(ADP-ribose) binding”.

Question: And the “poly(ADP-ribose) hydrolysis activity” value [19]?
Answer: The value was “None of the macro proteins degraded poly(ADP-ribose)”.
